Assay results as given in patent US9526796B2, “Peptide-based in vivo siRNA delivery system” (priority 2010, dated 2016).
Non-standard residues stand in square brackets, D forms with d. No end group written: not given here. Nle = CCCC[C@H](N)C(=O)O

Tests used:
ApoB = assay: Knockdown of endogenous serum ApoB in mice after co-injection of masked melittin delivery peptide and ApoB siRNA-cholesterol conjugate; assay type: in vivo; conditions: for % knockdown: 200 μg siRNA; for percent knockdown: CDM-NAG (5×)
Procedure: (§1) RNAi polynucleotide conjugates and masked melittin peptides were synthesized as described above. Six to eight week old mice (strain C57BL/6 or ICR, ˜18-20 g each) were obtained from Harlan Sprague Dawley (Indianapolis Ind.). Mice were housed at least 2 days prior to injection. Feeding was performed ad libitum with Harlan Teklad Rodent Diet (Harlan, Madison Wis.). Mice were injected with 0.2 mL solution of delivery peptide and 0.2 mL siRNA conjugates into the tail vein. For simultaneous injection of delivery peptide and siRNA, the siRNA-conjugate was added to modified peptide prior to injection and the entire amount was injected. The composition was soluble and nonaggregating in physiological conditions. Solutions were injected by infusion into the tail vein.
Mice were fasted for 4 h (16 h for rats) before serum collection by submandibular bleeding. For rats blood was collected from the jugular vein. Serum ApoB protein levels were determined by standard sandwich ELISA methods. Briefly, a polyclonal goat anti-mouse ApoB antibody and a rabbit anti-mouse ApoB antibody (Biodesign International) were used as capture and detection antibodies respectively. An HRP-conjugated goat anti-rabbit IgG antibody (Sigma) was applied afterwards to bind the ApoB/antibody complex. Absorbance of tetramethyl-benzidine (TMB, Sigma) colorimetric development was then measured by a Tecan Safire2 (Austria, Europe) microplate reader at 450 nm.
Melittin was reversibly modified with CDM-NAG as described above. The indicated amount of melittin was then co-injected with the 200 μg ApoB siRNA-cholesterol conjugate. Effect on ApoB levels were determined as described above.
Melittin was reversibly modified with CDM-NAG as described above. The indicated amount of melittin was then co-injected with 50 μg ApoB siRNA-cholesterol conjugate. Effect on ApoB levels were determined as described above.
Melittin was reversibly modified with CDM-NAG (5×) as described above. The indicated amount of melittin was then co-injected with the indicated amount of ApoB siRNA-cholesterol conjugate. Effect on ApoB levels were determined as described above.
Melittin was reversibly modified with the indicated amount of CDM-NAG as described above. 50 μg melittin was then co-injected with the 100 μg ApoB siRNA-cholesterol conjugate. Effect on ApoB levels were determined as described above.
Melittin peptides having the indicated sequence were reversibly modified with CDM-NAG (5×) as described above. The indicated amount of melittin was then co-injected with the indicated amount of ApoB siRNA-cholesterol conjugate. Effect on ApoB levels were determined as described above.
Melittin peptides containing the indicated PEG amino terminal modifications were synthesized as described above. The PEG amino terminal modified melittin peptides were then reversibly modified with 5×CDM-NAG as described above. The indicated amount of Melittin was then co-injected with the 100-200 μg ApoB siRNA-cholesterol conjugate. Effect on ApoB levels were determined as described above. Addition of PEG less than 5 kDa in size decreased toxicity of the melittin peptides.

Factor VII = assay: Knockdown of plasma Factor VII activity in rats after co-injection of CDM-NAG masked melittin and cholesterol-Factor VII siRNA; assay type: in vivo; conditions: 5× CDM-NAG, 3 mg/kg cholesterol-Factor VII siRNA
Procedure: as §1
Wistar Han rats, 175-200 g were obtained from Charles River (Wilmington, Mass.). Rats were housed at least 1 week prior to injection. Injection volume for rats was typically 1 ml.
Plasma samples from animals were prepared by collecting blood (9 volumes) (by submandibular bleeding for mice or from jugular vein for rats) into microcentrifuge tubes containing 0.109 mol/L sodium citrate anticoagulant (1 volume) following standard procedures. F7 activity in plasma is measured with a chromogenic method using a BIOPHEN VII kit (Hyphen BioMed/Aniara, Mason, Ohio) following manufacturer's recommendations. Absorbance of colorimetric development was measured using a Tecan Safire2 microplate reader at 405 nm.
The indicated melittin was reversibly modified with 5×CDM-NAG as described above. The indicated amount of melittin, in mg per kg animal weight, was then co-injected with the 3 mg/kg cholesterol— Factor VII siRNA. Effect on Factor VII levels were determined as described above.

[1] = peptide 1 (mg per kg animal weight), relative to isotonic glucose injected animals
[2] = 400 μg peptide per mouse, 100 μg siRNA per mouse
[3] = 50 μg peptide per mouse, 100 μg siRNA per mouse
[4] = 100 μg peptide per mouse, 100 μg siRNA per mouse

## GIGAILKVLATGLPTLISWIKNKRKQ (listed as Apis florea) [Seq ID 1, Apis florea melittin]
ApoB; 5× CDM-NAG, 100 μg peptide, relative to isotonic glucose injected animals
  % knockdown: 25%
ApoB; 5× CDM-NAG, 200 μg peptide
  % knockdown: 51%
ApoB; 5× CDM-NAG, 400 μg peptide
  % knockdown: 78%
ApoB; 5× CDM-NAG, 800 μg peptide
  % knockdown: 87%
ApoB; 5× CDM-NAG, 1200 μg peptide
  % knockdown: 94%
ApoB; 5× CDM-PEG, 800 μg peptide, relative to isotonic glucose injected animals
  % knockdown: 0%
ApoB; amount in column 'siRNA' 200 μg
  percent knockdown: 90%
ApoB; amount in column 'siRNA' 400 μg
  percent knockdown: 80%
Factor VII; [1]
  Factor VII knockdown: 30
Factor VII; peptide 3 (mg per kg)
  Factor VII knockdown: 83
Factor VII; peptide 10 (mg per kg)
  Factor VII knockdown: 90
Factor VII; peptide 20 (mg per kg)
  Factor VII knockdown: 95

## G1Y, K7A (Seq ID 17): melittin peptide derivative (YIGAILAVLATGLPTLISWIKNKRKQ; melittin-like peptide derive from Apis florea)
ApoB; [2]
  percent knockdown: 83%

## G1L, T11C dMel (Seq ID 21): melittin peptide derivative ([dL][dI]G[dA][dI][dL][dK][dV][dL][dA][dC]G[dL][dP][dT][dL][dI][dS][dW][dI][dK][dN][dK][dR][dK][dQ])
ApoB; 100 μg peptide per mouse, 50 μg siRNA per mouse
  percent knockdown: 81%

## G1dI (D form Ile at 1^st position, Seq ID 6): melittin peptide derivative ([dI]IGAILKVLATGLPTLISWIKNKRKQ)
ApoB; [3]
  percent knockdown: 34%

## G1L retro-dMel-KLK-PEG(5k) (Seq ID 115): melittin peptide derivative (KLK[dQ][dK][dR][dK][dN][dK][dI][dW][dS][dI][dL][dT][dP][dL]G[dT][dA][dL][dV][dK][dL][dI][dA]G[dI][dL]; also: PEG 5k conjugated)
ApoB; [4]
  percent knockdown: 32%

## G1W (Seq ID 10): melittin peptide derivative (WIGAILKVLATGLPTLISWIKNKRKQ; melittin-like peptide derive from Apis florea)
ApoB; 200 μg peptide per mouse, 200 μg siRNA per mouse
  percent knockdown: 96%

## Mel-NH2 (Seq ID 116): melittin peptide derivative (GIGAILKVLATGLPTLISWIKNKRKQ-NH2)
ApoB; [3]
  percent knockdown: 86%

## PEG(5k)-KLK-dMel G1Y (Seq ID 56): melittin peptide derivative ({PEG 5k}-KLK[dY][dI]G[dA][dI][dL][dK][dV][dL][dA][dT]G[dL][dP][dT][dL][dI][dS][dW][dI][dK][dN][dK][dR][dK][dQ])
ApoB; 300 μg peptide per mouse, 100 μg siRNA per mouse
  percent knockdown: 72%

## G1L, K21A (Seq ID 28): melittin peptide derivative (YIGAILKVLATGLPTLISWIANKRKQ; melittin-like peptide derive from Apis florea)
ApoB; [4]
  percent knockdown: 95%

## (Ac-CIGAVLKVLTTGLPALISWIKRKRQQ-NH2)2
ApoB; 400 μg peptide per mouse, 200 μg siRNA per mouse
  percent knockdown: 45%

## G1L, R24A (Seq ID 30): melittin peptide derivative (LIGAILKVLATGLPTLISWIKNKAKQ; melittin-like peptide derive from Apis florea)
ApoB; [4]
  percent knockdown: 87%

## dimethyl-dMel I2Nle, I5Nle, T11C, I17Nle, I20Nle dMel (Seq ID 47): melittin peptide derivative (G[Nle]GA[Nle]LKVLACGLPTL[Nle]SW[Nle]KNKRKQ; also: dimethyl, site not given here, D-amino acids, positions not given here)
ApoB; [4]
  percent knockdown: 78%

## N22T Mel-NH2 (Seq ID 15): melittin peptide derivative (GIGAILKVLATGLPTLISWIKTKRKQ-NH2)
ApoB; [3]
  percent knockdown: 34%

## G1Y, Q26C (Seq ID 32): melittin peptide derivative (YIGAILKVLATGLPTLISWIKNKRKC; melittin-like peptide derive from Apis florea)
ApoB; [4]
  percent knockdown: 93%

## G1Y, K25A (Seq ID 31): melittin peptide derivative (YIGAILKVLATGLPTLISWIKNKRAQ; melittin-like peptide derive from Apis florea)
ApoB; [4]
  percent knockdown: 77%

## G1L Mel (1-23) (Seq ID 71): melittin peptide derivative (LIGAILKVLATGLPTLISWIKNK; melittin-like peptide derive from Apis florea)
ApoB; [2]
  percent knockdown: 69%

## YIGAILKVLATGLPTLISWIKNKRKQ (melittin-like peptide derive from Apis florea) [Seq ID 11]
Factor VII; [1]
  Factor VII knockdown: 93
Factor VII; peptide 3 (mg per kg)
  Factor VII knockdown: 97
